Results: patent US4717716A, “Immuno-regulator” (Nihon University, priority 1985, dated 1988)
Values joined by “and” are separate entries in the source; they are usually repeats but may differ in a detail not shown here. Equal entries are not always repeated.

Experiments:
[1] = tested on: DDY male mouse; assay: Acute toxicity of L-carnosine in mice; assay type: in vivo
Description: L-carnosine was administered peritoneally or orally in different amounts to a group of 10 mice and acute toxic symptoms were observed 5 hours after administration. […] L-carnosine was dissolved in a physiological saline so as to give a dose of 0.1 to 0.3 ml/10 g.

[2] = tested on: plaque-forming cells of DDY mouse immunized with sheep red blood cells (SRBC); assay: PFC method (hemolytic plaque-forming cells) in mice immunized with SRBC; assay type: in vivo; settings: for PFC Number per g. Spleen: 4 days after immunization; for PFC reaction: mouse of 5 weeks age, 2.5×10^8 SRBC
[3] = tested on: anti-SRBC antibody in serum of mice immunized with SRBC; assay: Determination of serum antibody value (hemagglutination titer, HA-titer); assay type: in vivo, mouse; settings: for Anti-SRBC Antibody Value N: maximal positive dilution 2^N
Description: Blood was collected in the PFC reaction from carotid arteries of a group of five mice, from which was separated a serum in a conventional manner for determination of hemagglutination titer (HA-titer). The test serum was diluted with a phosphate buffered saline (PBS) containing 0.5-1% of a serum from a normal rabbit, and was evaluated using SRBC. The maximal dilution showing positive reaction was represented by 2^N, wherein N represents an antibody value.

[4] = tested on: male DDY mouse sensitized with picryl chloride; assay: Delayed hypersensitivity reaction (picryl chloride contact dermatitis); assay type: in vivo; settings: for Increase of Ear control %: 0 mg/kg/day = 100; for Thickness × 10^-3cm Increase of Ear: 1% picryl chloride, average of 8 mice ± S.D.
Text: A male DDY mouse of 5 weeks are weighing about 20 g was used to detect its contact dermatitis by means of 2, 4, 6-trinitro-chlorobenzene (picryl chloride) (available from Tokyo Chemical Industry Co., Ltd). An ethanol solution of 1% picryl chloride was impregnated into 4-layered gauge (1×1 cm), which was then contacted with a shaved abdomen of the mouse for 10 seconds to cause primary sensitization. The secondary sensitization for test was caused on seventh day by applying an olive oil solution of 1% picryl chloride on both surfaces of one ear by means of a paint brush. The other ear had applied only olive oil as a control. After 24 hours, the mouse was anesthetized with ether, and thickness of the ear was determined in the order of 1/100 mm by a micrometer having precision of 1/100 mm. The delayed hypersensitivity reaction was calculated as follows: […]
(Thickness of Ear Applied with Picryl Chloride after 24 Hours--Thickness of Ear before Application) minus (Thickness of Ear Applied with Olive Oil After 24 Hours--Thickness of Ear before Application).
L-carnosine was administered subcutaneously in the indicated amount for 14 days. On the 7th day, sensitization was conducted by 1% picryl chloride, and examination was carried out on 7 days later. Values are shown in an average of 8 mices ±S.D.

[5] = Physicochemical properties of L-carnosine
[6] = formulated by LISA corporation in Spain since 10 years; cited from earlier work
[7] = SRBC antigen amount 2.5 × 10^9, 100 mg/Kg/day S.C. for six days
[8] = SRBC antigen amount 5 × 10^7, 100 mg/Kg/day S.C. for six days
[9] = mice of 2 weeks age, 100 mg/Kg/day S.C., 2.5 × 10^8 SRBC
[10] = mice of 5 weeks age, 100 mg/Kg/day S.C., 2.5 × 10^8 SRBC
[11] = mice of 30 weeks age, 100 mg/Kg/day S.C., 2.5 × 10^8 SRBC
[12] = 50 mg/kg/day subcutaneously for 14 days
[13] = 250 mg/kg/day subcutaneously for 14 days
[14] = 500 mg/kg/day subcutaneously for 14 days

Structure (SMILES): NCCC(=O)N[C@@H](Cc1cnc[nH]1)C(=O)O [L-carnosine, β-alanyl-L-histidine]
- acute toxicity, overall ([1]; DDY male mouse): very low toxicity
- effective amount as fraction of acute toxicity LD50 ([1]; mouse, in vivo): 1/181
- mice killed ([1]; mouse, in vivo): one of the 10
- toxic effect of oral administration ([1]; oral 15,000 mg/Kg, mice): little effect
- LD50 (minimal lethal dose) ([1]; oral, DDY male mouse, value on 72 hours): > 14,930 mg/Kg
- toxic symptoms ([1]; peritoneal 15,000 mg/Kg, from about 30 minutes, a half of the mice): depression of voluntary motility, abdominal position, depression and irregularity of respiration rate
- LD 100 ([1]; peritoneal administration, mice): 15,000 mg/Kg
- LD50 (95% confidence limit) ([1]; peritoneal, DDY male mouse, value on 72 hours): 9,087 (8,320-9,925) mg/Kg and 9,087 mg/Kg
- PFC Number per Chamber ([2]; 25 mg/kg): 53.0 ± 6.1
- PFC Number per Spleen ([2]; 25 mg/kg): 10.7 × 10^4
- PFC Number per g. Spleen (%) ([2]; 25 mg/kg for 6 days, 2.5 × 10^8 SRBC, 0 mg/kg = 100): 133%
- PFC Number per g. Spleen ([2]; 25 mg/kg for 6 days, 2.5 × 10^8 SRBC, mice): 7.6 × 10^5
- PFC Number per Chamber (%) ([2]; 25 mg/kg, 144 h): 88%
- PFC Number per Spleen (%) ([2]; 25 mg/kg, 144 h): 123%
- Weight of Spleen (%) ([2]; 25 mg/kg, 144 h): 92%
- PFC Number per Chamber ([2]; 50 mg/kg): 73.6 ± 6.2
- PFC Number per Spleen ([2]; 50 mg/kg): 14.9 × 10^4
- PFC Number per g. Spleen (%) ([2]; 50 mg/kg for 6 days, 2.5 × 10^8 SRBC, 0 mg/kg = 100): 149%
- PFC Number per g. Spleen ([2]; 50 mg/kg for 6 days, 2.5 × 10^8 SRBC, mice): 8.5 × 10^5
- PFC Number per Chamber (%) ([2]; 50 mg/kg, 144 h): 122%
- PFC Number per Spleen (%) ([2]; 50 mg/kg, 144 h): 171%
- Weight of Spleen (%) ([2]; 50 mg/kg, 144 h): 116%
- effect on the PFC response ([2]; 100 mg/kg): No effect
- PFC decreased ([2]; 100 mg/kg, 144 h): 30%
- PFC increased ([2]; 100 mg/kg, 144 h): 30%
- PFC Number per Chamber ([2]; 250 mg/kg): 69.8 ± 6.5
- PFC Number per Spleen ([2]; 250 mg/kg): 14.6 × 10^4
- PFC Number per g. Spleen (%) ([2]; 250 mg/kg for 6 days, 2.5 × 10^8 SRBC, 0 mg/kg = 100): 167%
- PFC Number per g. Spleen ([2]; 250 mg/kg for 6 days, 2.5 × 10^8 SRBC, mice): 9.5 × 10^5
- PFC Number per Chamber (%) ([2]; 250 mg/kg, 144 h): 116%
- PFC Number per Spleen (%) ([2]; 250 mg/kg, 144 h): 168%
- Weight of Spleen (%) ([2]; 250 mg/kg, 144 h): 100%
- PFC Number per Chamber ([2]; 500 mg/kg): 64.8 ± 4.9
- PFC Number per Spleen ([2]; 500 mg/kg): 8.3 × 10^4
- PFC Number per g. Spleen (%) ([2]; 500 mg/kg for 6 days, 2.5 × 10^8 SRBC, 0 mg/kg = 100): 107%
- PFC Number per g. Spleen ([2]; 500 mg/kg for 6 days, 2.5 × 10^8 SRBC, mice): 6.1 × 10^5
- PFC Number per Chamber (%) ([2]; 500 mg/kg, 144 h): 107%
- PFC Number per Spleen (%) ([2]; 500 mg/kg, 144 h): 95%
- Weight of Spleen (%) ([2]; 500 mg/kg, 144 h): 89%
- PFC Number per g. Spleen (%) ([2]; 2 weeks age, 100 mg/Kg/day S.C., 2.5 × 10^8 SRBC, normal = 100): 64%
- PFC Number per g. Spleen (%) ([2]; 5 weeks age, 100 mg/Kg/day S.C., 2.5 × 10^8 SRBC, normal = 100): 110%
- PFC Number per g. Spleen (%) ([2]; 30 weeks age, 100 mg/Kg/day S.C., 2.5 × 10^8 SRBC, normal = 100): 177%
- PFC Number per g. Spleen (%) ([2]; SRBC 2.5 × 10^9, 100 mg/Kg/day S.C. six days, normal = 100): 71%
- PFC Number per g. Spleen (%) ([2]; SRBC 5 × 10^7, 100 mg/Kg/day S.C. six days, normal = 100): 119%
- PFC Number per g. Spleen (%) ([2]; SRBC 5 × 10^8, 100 mg/Kg/day S.C. six days, normal = 100): 53%
- PFC Number per g. Spleen [2, 7]: 10.2 × 10^5
- PFC Number per g. Spleen [2, 8]: 5.0 × 10^5
- PFC Number per g. Spleen ([2]; SRBC antigen amount 5 × 10^8, 100 mg/Kg/day S.C. for six days): 8.2 × 10^5
- effect on the PFC response ([2]; immature mouse of 2 weeks age, 100 mg/Kg for 9 days): suppressed
- PFC Number per g. Spleen [2, 9]: 4.8 × 10^5
- PFC Number per g. Spleen [2, 10]: 12.5 × 10^5
- PFC Number per g. Spleen [2, 11]: 11.7 × 10^5
- PFC reaction ([2]; 50 and 250 mg/Kg for 6 days): increased
- PFC reaction ([2]; dose of more than 500 mg/Kg): subsided
- effect on the PFC response ([2]; old mouse of 30 weeks age, 100 mg/Kg for 9 days): doubly strengthened
- optimum dosage for the immuno-regulatory action ([2]; sc): 100 mg/kg/day
- Weight of Spleen (%) ([2]; sc, 100 mg/kg/day, 336 h): 93%
- PFC Number per Chamber (%) ([2]; sc, 100 mg/kg/day, 840 h): 107%
- PFC Number per Spleen (%) ([2]; sc, 100 mg/kg/day, 840 h): 110%
- Weight of Spleen (%) ([2]; sc, 100 mg/kg/day, 840 h): 100%
- Weight of Spleen (%) ([2]; sc, 100 mg/kg/day, 5040 h): 121%
- Anti-SRBC Antibody Value N ([3]; 25 mg/kg for 6 days, 2.5 × 10^8 SRBC): 9
- Anti-SRBC Antibody Value N ([3]; 50 mg/kg for 6 days, 2.5 × 10^8 SRBC): 10
- Anti-SRBC Antibody Value N ([3]; 250 mg/kg for 6 days, 2.5 × 10^8 SRBC): 9
- Anti-SRBC Antibody Value N ([3]; 500 mg/kg for 6 days, 2.5 × 10^8 SRBC): 8
- Anti-SRBC Antibody Value N [3, 7]: 8
- Anti-SRBC Antibody Value N [3, 8]: 4
- hemagglutination reaction ([3]; level of more than 500 mg/Kg): subsided
- Anti-SRBC Antibody Value N [3, 9]: 6-7
- Anti-SRBC Antibody Value N [3, 10]: 9-10
- Anti-SRBC Antibody Value N [3, 11]: 9
- Increase of Ear control % [4, 12]: 122.6%
- Thickness × 10^-3cm Increase of Ear [4, 12]: 14.1 ± 3.6 × 10^-3cm
- Increase of Ear control % [4, 13]: 136.5%
- Thickness × 10^-3cm Increase of Ear [4, 13]: 15.7 ± 2.5 × 10^-3cm
- Increase of Ear control % [4, 14]: 185.2%
- Thickness × 10^-3cm Increase of Ear [4, 14]: 21.3 ± 8.7 × 10^-3cm
- DHR with 1% picryl chloride ([4]; doses of 50, 250 and 500 mg/Kg): increasing trend of reaction
- solubility in water [5]: readily soluble in water
- safety in use as anorexia treating agent [6]: confirmed to be safe
